Measured values from publication PMC3350798 (Journal of Medicinal Chemistry, 2012).
Entries after “also recorded” stand apart in the source; their conditions may differ. Where two headings read alike, the source gives them in different places.

How the values were obtained:
Tdp1 [1] = target: T1, Tdp1 (Homo sapiens, UniProt Q9NUW8); details: cited from earlier work
Tdp1 [2] = target: T1, Tdp1; experiment: Surface plasmon resonance binding to amine coupled Tdp1; details: 33, 11, 3.7, 1.2 and 0.4 μM injected over amine coupled Tdp1
Tdp1 [3] = target: T1, Tdp1; experiment: FRET assay, mechanism of inhibition of Tdp1; format: biochemical
Human recombinant Top1 = target: T2, Human recombinant Top1 (Homo sapiens, UniProt P11387); experiment: Topoisomerase I-mediated DNA cleavage assay; format: biochemical; details: semiquantitative, relative to 1 μM camptothecin
T2 sequence (P11387 1-765): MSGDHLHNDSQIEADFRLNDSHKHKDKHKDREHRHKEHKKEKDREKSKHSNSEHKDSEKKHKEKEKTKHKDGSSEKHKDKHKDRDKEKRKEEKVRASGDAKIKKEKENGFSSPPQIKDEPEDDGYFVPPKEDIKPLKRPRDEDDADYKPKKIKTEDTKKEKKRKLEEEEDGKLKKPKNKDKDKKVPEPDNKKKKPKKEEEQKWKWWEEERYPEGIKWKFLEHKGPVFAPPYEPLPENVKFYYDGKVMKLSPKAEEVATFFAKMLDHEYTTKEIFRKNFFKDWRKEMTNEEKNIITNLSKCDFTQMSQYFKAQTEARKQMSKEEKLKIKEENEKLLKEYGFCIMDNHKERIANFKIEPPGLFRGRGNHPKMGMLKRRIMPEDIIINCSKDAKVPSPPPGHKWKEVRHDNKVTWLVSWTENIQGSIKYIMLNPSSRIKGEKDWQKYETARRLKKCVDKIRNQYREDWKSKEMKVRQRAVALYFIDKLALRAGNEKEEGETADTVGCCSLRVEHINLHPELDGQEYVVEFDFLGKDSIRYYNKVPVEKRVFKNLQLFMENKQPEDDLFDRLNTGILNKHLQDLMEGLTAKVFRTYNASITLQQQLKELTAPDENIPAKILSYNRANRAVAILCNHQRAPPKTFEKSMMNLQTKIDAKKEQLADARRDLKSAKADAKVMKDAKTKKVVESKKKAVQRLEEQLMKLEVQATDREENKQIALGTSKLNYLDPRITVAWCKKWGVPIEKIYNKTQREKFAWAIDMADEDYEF

[4] = system: 60 human cancer cell lines; details: read-out: MGM GI50, mean graph midpoint; cited from earlier work

T1 sequence (Q9NUW8 whole entry): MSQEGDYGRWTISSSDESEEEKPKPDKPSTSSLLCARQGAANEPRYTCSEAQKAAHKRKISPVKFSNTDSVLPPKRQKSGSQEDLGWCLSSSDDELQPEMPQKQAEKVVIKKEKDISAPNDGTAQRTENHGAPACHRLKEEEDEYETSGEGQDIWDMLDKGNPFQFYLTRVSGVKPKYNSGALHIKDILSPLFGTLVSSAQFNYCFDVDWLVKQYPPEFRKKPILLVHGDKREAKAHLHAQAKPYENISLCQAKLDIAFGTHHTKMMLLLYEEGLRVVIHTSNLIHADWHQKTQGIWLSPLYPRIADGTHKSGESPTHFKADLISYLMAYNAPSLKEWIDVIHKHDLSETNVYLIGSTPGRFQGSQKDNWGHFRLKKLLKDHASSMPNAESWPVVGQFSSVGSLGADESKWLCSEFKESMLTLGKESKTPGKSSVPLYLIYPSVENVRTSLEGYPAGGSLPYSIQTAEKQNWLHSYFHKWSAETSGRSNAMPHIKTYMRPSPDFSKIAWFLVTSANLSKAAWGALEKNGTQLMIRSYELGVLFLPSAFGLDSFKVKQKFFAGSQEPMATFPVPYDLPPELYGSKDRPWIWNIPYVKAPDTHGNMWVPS

Question: For `C[C@]12CC[C@H]3[C@@H](CCC4=CC(=O)CC[C@@]43C)[C@@H]1CC[C@@H]2C(=O)COS(=O)(=O)c1ccc(Br)cc1` [compound 7, 4-Pregnen-21-ol-3,20-dione-21-(4-bromobenzenesufonate)], which “Mechanism of inhibition of Tdp1” value (Tdp1 [1]) is on record?
Answer: competitive with the DNA substrate

Question: Which “Binding to Tdp1 by surface plasmon resonance” value (Tdp1 [2]) does the source give for `Cl.NCCCn1c2c(c3ccccc3c1=O)C(=O)c1ccccc1-2` [compound 70] here?
Answer: direct binding; also recorded: rapidly reaches equilibrium and then completely dissociates

Question: What about the “Mechanism of inhibition of Tdp1” value (Tdp1 [3]) of the same molecule?
Answer: competitive inhibitor

Question: For `Cl.NCCCCCCCCCCCCn1c2c(c3ccccc3c1=O)C(=O)c1ccccc1-2` [compound 79], which “Top1 (compound-induced DNA cleavage due to Top1 inhibition)” value (Human recombinant Top1) is on record?
Answer: 0/+

Question: For `O=C1c2ccccc2-c2c1c1ccccc1c(=O)n2CCCNCCCNCCCn1c2c(c3ccccc3c1=O)C(=O)c1ccccc1-2` [compound 145, Bis-1,3-{(5,6-dihydro-5,11-diketo-11H-indeno[1,2-c]isoquinoline)-6-propylamino}propane Bis(trifluoroacetate)], which GI50 [4] is on record?
Answer: 394 nM

Question: For `[O]=[V]([O-])([O-])[O-]` [vanadate], which “Tdp1 inhibition” value (Tdp1 [1]) is on record?
Answer: inhibition at millimolar concentrations
